How the values were obtained:
[1] = Half cytotoxic concentration on normal mammary gland epithelial cells MCF-10A-5E (PrestoBlue); type: cell-based; conditions: human, MCF-10A-5E normal mammary gland epithelial cells, 5 days culture, 10% horse serum, read-out: Non-toxicity (evaluated by CC50)
Method: Human normal mammary epithelial cells, MCF-10A-5E cells, were cultured in DMEM/F12K (1:1) medium, wherein Insulin-Transferrin-Selenium (ITS-G) (41400045; Thermo Fisher Scientific) diluted 1,000-fold for use, EGF stock (1 mg/mL) (10605-HNAE; Sino Biological) diluted 2,000-fold for use and Hydrocortisone stock (1 mg/mL) (S1696; Selleck Chemicals) diluted 2,000-fold for use were additionally added to the medium.
5×10^3 of the cells mentioned above were seeded in a 96-well plate and cultured overnight (at least 16 hours) in a carbon dioxide incubator.
After overnight incubation, the supernatant was removed. Next, after 200 μL of cell culture medium (containing 10% horse serum) containing different concentrations of test compound was added to each well of the 96-well plate, the 96-well plate was placed in a 5% carbon dioxide incubator at 37° C. for 5 days further culture. After that, an additional 30 μL of diluted PrestoBlue™ Cell Viability Reagent (Catalog Number: A13261; Thermo Fisher Scientific) (4 μL stock solution and 26 μL culture medium) was added to each well of the 96-well plate and the reaction was continued for further about 1 hour.
Finally, the fluorescence value at the wavelength of 535/615 nm of each well was read with a plate enzyme immunoassay analyzer, and the fatality rate of the compound on normal mammary gland epithelial cells were calculated using the following formula.
Moreover, the half cytotoxic concentration (50% cytotoxic concentration, CC50) of the compound on normal mammary gland epithelial cells was calculated with the fatality rate of compound on normal mammary gland epithelial cells at each concentration through the online half maximal inhibitory concentration (IC50) calculation software, ICso Calculator, provided by AAT Bioquest company on its website (https://www.aatbio.com/tools/ic50-calculator).
Finally, toxicity of the compound on normal mammary gland epithelial cells was evaluated by the calculated half cytotoxic concentration (CC50) of the compound on normal mammary gland epithelial cells.
In addition, the toxicity of the compound on normal mammary gland epithelial cells was evaluated by the half cytotoxic concentration (CC50) of the compound (one of Compound 1 to Compound 15 prepared above) on normal mammary gland epithelial cells through the human normal mammary gland epithelial cell line MCF-T0A-5E.

GNAQ (WT) = target: T1, GNAQ (WT) (Homo sapiens, UniProt P50148); assay: SRE luciferase reporter gene-HEK293 cell line, GNAQ (WT); type: cell-based; conditions: Cell type WT, 20% FBS induction, read-out: GNAQ inhibitory rate; for inhibition at 0.9 µM: analytical concentration 900 nM; for inhibition at 2.7 µM: analytical concentration 2,700 nM; for inhibition at 8.1 µM: analytical concentration 8,100 nM
T1 construct: BPS Bioscience (parental reporter cell line) 60406
T1 sequence (P50148 1-359): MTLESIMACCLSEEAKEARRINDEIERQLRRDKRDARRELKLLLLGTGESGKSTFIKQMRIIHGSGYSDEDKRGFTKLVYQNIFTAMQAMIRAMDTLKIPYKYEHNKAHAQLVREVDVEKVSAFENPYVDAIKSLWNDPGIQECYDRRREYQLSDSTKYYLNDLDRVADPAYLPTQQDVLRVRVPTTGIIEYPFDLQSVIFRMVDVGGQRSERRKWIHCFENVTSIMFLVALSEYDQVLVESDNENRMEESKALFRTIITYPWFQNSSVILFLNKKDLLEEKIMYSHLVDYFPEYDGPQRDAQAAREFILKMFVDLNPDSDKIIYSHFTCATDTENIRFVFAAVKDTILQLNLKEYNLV
Method: 7.5×10^4 SRE-293-GNAQ (WT) or SRE-293-GNAQ (T96S) cell lines were seeded in a 24-well plate and cultured in a carbon dioxide incubator at 37° C. SRE-293-GNAQ (WT) or SRE-293-GNAQ (T96S) cell lines was derived from additionally transfecting SRE Reporter—HEK293 Recombinant Cell Line (ERK Pathway) (Catalog number: 60406; BPS Bioscience) cells with an expression vector separately expressing GNAQ (WT) or GNAQ (T96S), and screening a stable expression cell line by the antibiotic, geneticin (type number 10131035; Thermo Fisher Scientific). GNAQ (WT) or GNAQ (T96) expression vector was derived from gene synthesis and point mutation modification of GenScript company's customized services.
After 48 hours of culture, the culture medium in the 24-well plate was replaced with minimal essential medium (MEM) containing only 0.1% fetal bovine serum (FBS) and the cells were cultured overnight.
After overnight culture, the compound to be tested was added to the cells and reacted for 2 hours, and the medium at this point was still MEM medium containing only 0.1% fetal bovine serum. After reacting with the compound to be tested for 2 hours, fetal bovine serum at a final concentration of 20% was added to the cells and reacted for at least 4 hours. After the reaction, the supernatant was removed. Next, 100 μL of cell lysis reagent CelLytic M Cell Lysis Reagent (Catalog number: C2978; Sigma) was added to the cells and aspirated repeatedly several times to form a cell lysate solution with the cells. The cell lysate solution was collected in a microcentrifuge tube and centrifuged at a high speed of 14,000 rpm for 5 minutes. After that, 30 μL of supernatant was taken out and placed in a 96-well white plate for luminescence analysis, and 30 μL of firefly luminescence analysis reagent (Catalog No. E1501; Promega) diluted 3-fold was added and mixed well, and then luminescence detection was performed with a plate enzyme immunoassay analyzer (ELISA reader) to evaluate the effect of the compound to be tested on MAPK signaling induced by GNAQ through the expression of the firefly luciferase reporter gene.
In order to confirm the effect of the compounds on MAPK signaling induced by GNAQ, the screened SRE-HEK293 cells capable of expressing exogenous GNAQ (WT) and GNAQ (T96S) genes were subjected to overnight serum starvation, and 2 hours before induction with 20% fetal bovine serum, the compound to be tested (one of Compound 1 to Compound 15 prepared above) was added to the cells, and after serum induction, the expression of the firefly luciferase reporter gene was measured. Through the above steps, the inhibition of the compound to be tested on GNAQ expression could be evaluated through the expression of the reporter gene in cells.

| inhibition at 0.9 µM (GNAQ (WT)) | inhibition at 2.7 µM (GNAQ (WT)) | inhibition at 8.1 µM (GNAQ (WT)) | SMILES | CC50 at 5 days [1] |
| --- | --- | --- | --- | --- |
| 10 to 39% | 40 to 70% | > 70% | FC(F)(F)c1cccc(-c2cccc(-c3ccc(NC(=S)Nc4cc(Cl)nc(Cl)c4)cc3)n2)c1 [Compound 10] | > 20 µM |
| 10 to 39% | 40 to 70% | > 70% | N#Cc1cccc(-c2cccc(-c3ccc(NC(=S)Nc4cc(Cl)nc(Cl)c4)cc3)n2)c1 [Compound 11] | > 20 µM |
| 10 to 39% | 10 to 39% | 40 to 70% | O=C(Nc1ccc(-c2cccc(-c3ccncc3)n2)cc1)Nc1ccc(Cl)c(C(F)(F)F)c1 [Compound 12] | 10 to 20 µM |
| 10 to 39% | 40 to 70% | > 70% | O=C(Nc1cccc(-c2cccc(-c3ccncc3)n2)c1)Nc1cc(Cl)nc(Cl)c1 [Compound 13] | > 20 µM |
| < 10% | 10 to 39% | 40 to 70% | O=C(Nc1cccc(-c2cc(-c3cccc(C(F)(F)F)c3)ncn2)c1)Nc1cc(Cl)nc(Cl)c1 [Compound 14] | 10 to 20 µM |
| < 10% | 10 to 39% | > 70% | O=C(Nc1ccc(-c2nc(-c3ccccc3)ncc2Cl)cc1)Nc1cc(Cl)nc(Cl)c1 [Compound 15] | 10 to 20 µM |

Second part, the compound before the results:

| SMILES | inhibition at 0.9 µM (GNAQ (WT)) | inhibition at 2.7 µM (GNAQ (WT)) | inhibition at 8.1 µM (GNAQ (WT)) | CC50 at 5 days [1] |
| --- | --- | --- | --- | --- |
| O=C(Nc1cccc(-c2ccnc(-c3ccnc(Cl)c3)n2)c1)Nc1cc(Cl)nc(Cl)c1 [Compound 1] | < 10% | 10 to 39% | > 70% | > 20 µM |
| O=C(Nc1cccc(-c2ccnc(-c3cccc(C(F)(F)F)c3)n2)c1)Nc1cc(Cl)nc(Cl)c1 [Compound 2] | 10 to 39% | 10 to 39% | > 70% | 10 to 20 µM |
| N#Cc1cccc(-c2nccc(-c3cccc(NC(=O)Nc4cc(Cl)nc(Cl)c4)c3)n2)c1 [Compound 3] | 10 to 39% | 10 to 39% | > 70% | 10 to 20 µM |
| O=C(Nc1cccc(-c2ccnc(-c3ccc(F)c(F)c3)n2)c1)Nc1cc(Cl)nc(Cl)c1 [Compound 4] | < 10% | 10 to 39% | 40 to 70% | 5 to 10 µM |
| O=C(Nc1cccc(-c2ccnc(-c3cccc(C(F)(F)F)c3)n2)c1)c1cc(Cl)nc(Cl)c1 [Compound 5] | < 10% | 10 to 39% | < 10% | > 20 µM |
| O=C(Nc1ccc(-c2ccnc(-c3ccncc3)n2)cc1)Nc1ccc(Cl)c(C(F)(F)F)c1 [Compound 6] | < 10% | 10 to 39% | 10 to 39% | 10 to 20 µM |
| O=C(Nc1ccc(-c2ccnc(-c3cccc(C(F)(F)F)c3)n2)cc1)Nc1cc(Cl)nc(Cl)c1 [Compound 7] | < 10% | < 10% | 10 to 39% | 10 to 20 µM |
| O=C(Nc1ccc(-c2ccnc(-c3cccc(C(F)(F)F)c3)n2)cc1)Nc1ccc(Cl)c(C(F)(F)F)c1 [Compound 8] | < 10% | < 10% | < 10% | 10 to 20 µM |
| O=C(Nc1ccc(-c2cccc(-c3cccc(C(F)(F)F)c3)n2)cc1)Nc1cc(Cl)nc(Cl)c1 [Compound 9] | 10 to 39% | 10 to 39% | > 70% | 10 to 20 µM |
